Article PMC9600589, “The Heptaprenyl Diphosphate Synthase (Coq1) Is the Target of a Lipophilic Bisphosphonate That Protects Mice against Toxoplasma gondii Infection” (mBio, 2022)

Assays:
[1] = tested on: T. gondii RH strain; experiment: Acute lethal infection of mice with RH tachyzoites; assay type: in vivo, Swiss Webster mice; details: mice infected with 100 RH tachyzoites, intraperitoneal, daily for 10 days from 6 h postinfection
Method: (§1) At this point, live mice were inoculated with δ-luciferin for visualization of the infection in an IVIS illumination system ([34]).
Experiments were carried out as described previously ([49]) using 100 T. gondii tachyzoites of the RH strain to infect Webster mice. Drugs were dissolved in 10% kolliphor HS 15 and were inoculated intraperitoneally. Treatment was initiated 6 h after infection and administered daily for 10 days.

[2] = tested on: T. gondii RH-cLuc-GFP; experiment: Dissemination of infection, luciferase-expressing RH parasites, in vivo imaging; set-up: species or system Swiss Webster mice; details: 1 mg/kg single daily dose for 8 days
Excerpt: as §1

[3] = tested on: T. gondii RH parental strain; experiment: Plaque assay measuring growth reversibility after drug removal; assay type: cell-based, Toxoplasma gondii; details: 7 days with 1 μM or 2 μM, then 7 days without drug
[4] = tested on: hTERT cells; experiment: Cytotoxicity to hTERT cells (alamarBlue); details: for % Inhibition (cytotoxicity): hTERT cells
Method: The cytotoxicity was tested using an alamarBlue assay as described by Recher et al. ([67]).

[5] = tested on: T. cruzi; set-up: method as in PMID 24789335; details: cited from earlier work

In the case of CCCCCCCCCCn1cc[n+](CC(P(=O)([O-])O)P(=O)(O)O)c1 (stereo not shown) [BPH-1218], the ED50 [1] is reported as 0.69 mg/kg/day, the “effect on virulence and dissemination of the infection” value [2] is reported as “remarkable effect on both virulence and dissemination of the infection” and the “reversibility of growth inhibition after drug removal” value [3] is reported as “irreversible”. For the same compound, the “toxicity against human fibroblast cells” value [4] was “very little toxicity”, the “% Inhibition (cytotoxicity)” value ([4]; at 4X EC50 (concentration in μM in brackets)) was 4.30 ± 2.31% and the “% Inhibition (cytotoxicity)” value ([4]; at 10X EC50 (concentration in μM in brackets)) was 10.28 ± 1.07%. For the same compound, the “decrease in UQ9 biosynthesis” value [5] was 40%.
